Assay results from patent publication US20160338955A1, “ANTIGEN-SPECIFIC IMMUNOTHERAPY USING TOLERIZING LIPOSOMES” (PLS-Design GmbH, priority 2015, published 2016).
Converted amounts (≈) assume the structure as drawn. Read-outs that look alike come from different tables or passages of the source.

Assays:
[1] = Solubility; format: physicochemical
Method: In water, the solubility of OVA is about one gram per ml of water. Methylated BSA (mBSA) has been used for immunization at a concentration of 50 mg/ml of 0.9% NaCl (Gent et al., 2014).
In water DexP (MW 516.4) is soluble at a concentration of 50 mg/ml (product information of Santa Cruz Biotechnology), in PBS at a concentration of at least 25 mg/ml (Anderson et al., 2010), and in 10 mM HEPES and 135 mM NaCl, pH 6.7, at a concentration of at least 50 mg/ml (Koning et al., 2006).

[2] = Release of calcitriol from PLGA-PEG-PLGA hydrogels; format: physicochemical
Method: The biodegradable PLGA-PEG-PLGA triblock polymer described in this example has a PLG/PEG weight ratio of 2.3 (70/30), and a lactide/glycolide molar ratio of approx. 15/1. Synthesis of the triblock copolymer is performed as described in Example 2.1. An aliquot of 20 μl of a stock solution of calcitriol (2 mg/ml; 4.8 mM) in absolute ethanol (Cayman/Biomol GmbH) is combined with 160 μl of 25% gel solution and 20 μl of 10×PBS (final concentration of calcitriol: 0.2 mg/ml or 0.48 mM; final concentration of ethanol: 10%).
The mixture of 5.1.1 is incubated for 2 minutes at 37° C. to induce gelling and overlayed with 200 μl of 1×PBS. At frequent time points the supernatant is removed by pipetting and stored at 4° C. The removed supernatant is replaced by fresh 200 μl of 1×PBS. Controls of the same concentration of calcitriol in 1×PBS without gel are incubated and sampled in parallel.
After 48 hours the samples and controls are analysed using a Vitamin D ELISA kit, according to the manual of the manufacturer (Euroimmun AG, Luebeck). The assay is applicable for the determination of 25-0H vitamin D3 and other hydroxylated vitamin D3 molecules, and sufficiently linear from 4.0 to 120 ng/ml of 25-0H vitamin D3 (cross reactivity with calcitriol: 45%).
In brief, 20 μl of diluted samples are mixed with 230 μl of sample buffer containing a biotin-labed 25-0H vitamin D derivative. 200 μl of the mixture are transferred to an ELISA well of an 8-well strip and incubated at room temperature for 2 hours. The wells are washed with 3×300 μl washing buffer. Peroxidase labelled steptavidin-conjugate (100 μl) is added and incubated for a further hour. The well is again washed 3× with 300 μl washing buffer. Tetramethyl-benzidine (100 μl) substrate solution is added and developed until sufficient coloring. The reaction is stopped by addition of 100 μl 0.5 M sulphuric acid and measured spectrometrically at 420 nm with reference 650 nm.

[3] = cited from earlier work
[4] = humans; cited from earlier work
[5] = tested on: experimental autoimmune encephalomyelitis; settings: i.p. 5 μg/kg every 2 days; cited from earlier work
[6] = tested on: Langerhans cells (LCs) and dermal dendritic cells (DDCs); settings: LCs and DDCs primed in vitro; cited from earlier work
[7] = rat, in vivo; cited from earlier work

Q: For `C=C1/C(=C\C=C2/CCC[C@]3(C)[C@@H]([C@H](C)CCCC(C)(C)O)CC[C@@H]23)C[C@@H](O)C[C@@H]1O` [calcitriol, 1α,25-dihydroxyvitamin D3], which solubility ([1]; 1:5 ethanol:PBS, pH 7.2, aqueous with cosolvent or surfactant or cyclodextrin, read-out: solubility in a 1:5 solution of ethanol:PBS, pH 7.2) is on record?
A: The solubility was about 0.15 mg/mL (≈ 0.36 mM).

Q: And the solubility ([1]; ethanol, organic solvent or mixture, read-out: solubility in ethanol)?
A: Its solubility is about 50 mg/mL (≈ 120 mM).

Q: What about the hydrogel-embedded calcitriol released ([2]; after 12 hours) of the same molecule?
A: The hydrogel-embedded calcitriol released was “approx. 45%”.

Q: And the hydrogel-embedded calcitriol released ([2]; after 24 hours)?
A: Its hydrogel-embedded calcitriol released is “approx. 65%”.

Q: What about the hydrogel-embedded calcitriol released ([2]; after 48 hours) of the same molecule?
A: Its hydrogel-embedded calcitriol released is “approx. 85%”.

Q: And the hydrogel-embedded calcitriol released ([2]; within the first 2 hours)?
A: The hydrogel-embedded calcitriol released was “approx. 15%”.

Q: And the “calcitriol dose that can be administered as single bolus i.p. injection” value ([3]; in 0.2 ml normal saline)?
A: Its value is “up to 500 ng/mouse”.

Q: What about the “calcitriol dose above which mice become hypercalcemic on day 2 or 3” value ([3]; single bolus i.p.) of the same molecule?
A: Its value is “higher than 750 ng/mouse”.

Q: And the “single oral dose relatively well tolerated (grade 1 to 2 adverse events)” value [4]?
A: Its value is “up to 165 μg”.

Q: What about the “treated mice in which appearance of paralysis was prevented” value [5] of the same molecule?
A: The value was 70%.

Q: What about the “calcitriol concentration required to effectively induce FoxP3(+)Tregs and FoxP3(−)IL-10(+)TR1 cells” value [6] of the same molecule?
A: Its value is 2.5 µM.

Q: What about the “serum level of calcitriol to be kept below to avoid toxicity” value [7] of the same molecule?
A: The value was “below 250 ng/ml”.
